The record followed here is patent US20240417408A1, “SMALL MOLECULE INHIBITORS OF KRAS G12C MUTANT” (MERCK SHARP & DOHME CORP., priority 2021, published 2024).

Assay [1] addresses T1, Biotinylated KRAS G12C protein and GST-tagged Ras binding domain of c-RAF (Homo sapiens, UniProt P01116, C118S/C51S/C80L/G12C).
T1 construct: biotin acceptor peptide (Avi-type, […]
Kind of assay: Test Example 5: RAS:RAF-RBD binding assay (TR-FRET). To be noted: 30-minute incubation with compound, then GST-c-RAF RBD, read-out: cRaf IC50. The method, then: Test Example 5: Procedure for RAS:RAF-RBD Binding Assay
The RAF-Ras binding domain (RBD) protein interaction assay utilizes Biotinylated KRAS G12C protein (SEQ ID NO: 3) and the GST-tagged Ras binding domain of c-RAF (residues 50-132) from Jena Biosciences). Compounds are added to KRAS and then after a 30-minute incubation time the RAF-RBD and detection antibodies are added. Small molecule inhibitors that block the interaction of c-RAF-RBD prevent generation of a TR-FRET signal.
Biotinylated KRAS G12C protein is diluted to 20 nM in assay buffer (20 mM HEPES pH 7.5, 150 mM sodium chloride, 10 mM magnesium chloride, and 0.01% Tween20).
Each test compound (10 mM stock in DMSO) is diluted in DMSO to make a 10-point, 3-fold dilution series in a 384-well low dead volume microplate (Labcyte, catalog #LP-0200). Once titrations are made, 50 nL of the diluted compounds is acoustically dispensed into 384-well plates (Corning, catalog #3820) using an Echo 655 (Labcyte).
Each well of the assay plate receives 5 μL of Biotinylated KRAS G12C assay solution and is incubated at room temperature for 30 minutes. Each well then receives 5 μL of 100 nM GST-c-RAF RBD protein and a 1:100 dilution of both anti-GST-d2 (Cisbio catalog #61GSTDLA) and Strepavidin-Tb cryptate (Cisbio catalog #610SATLA) in assay buffer and the plate is mixed and briefly centrifuged followed by a 60 minute incubation at room temperature.
(§1) The time-resolved fluorescence resonance energy transfer signal of both plates is measured on an Envision (PerkinElmer) plate reader: dichroic mirror=LANCE/DELFIA DUAL/Bias; Emission1=615 nm; Emission2=665 nm; delay time=60 s. The signal of each well is determined as the ratio of the emission at 665 nm to that at 615 nm. Percent effect of each well is determined after normalization to control wells containing DMSO (no effect) or a saturating concentration of inhibitor (max effect). The apparent effect as a function of compound concentration is fit to a four-parameter logistic equation.
In general terms: TR-FRET usually uses a lanthanide donor and a delayed reading to cut background.

Assay [2] addresses T2, biotinylated KRAS protein containing G12C/C51S/C80L/C118S mutations (SEQ ID NO: 3) (Homo sapiens, UniProt P01116, C118S/C51S/C80L/G12C).
T2 construct: biotin acceptor peptide (Avi-type, […]
The experiment in a line: Test Example 4: SOS-catalyzed nucleotide exchange assay (TR-FRET). In kind it is biochemical. The following applies: 60-minute incubation with compound, then SOS and GTP, read-out: GNE IC50. The method, then: Test Example 4: Procedure for SOS-Catalyzed Nucleotide Exchange Assay
The SOS-catalyzed nucleotide exchange assay utilizes a preformed complex of recombinant biotinylated KRAS protein containing G12C/C51S/C80L/C118S mutations (SEQ ID NO: 3) (referred to as Biotinylated KRAS G12C protein hereafter), Bodipy-GDP, and Terbium-streptavidin. Compounds are added to this complex and then after a 60-minute incubation time the mixture is treated with SOS and unlabeled GTP. Small molecule inhibitors stabilize the Bodipy-GDP complex whereas the untreated protein rapidly exchanges Bodipy-GDP for unlabeled GTP resulting in reduced TR-FRET signal.
Biotinylated KRAS G12C protein is diluted to 2 μM in an EDTA buffer (20 mM HEPES, 50 mM sodium chloride, 10 mM EDTA, and 0.01% Tween) and incubated at room temperature for one hour. This mixture is then further diluted to 90 nM in an assay buffer (20 mM HEPES, 150 mM sodium chloride, 10 mM magnesium chloride, and 0.005% Tween) containing 15 nM of Terbium-Streptavidin (Invitrogen, catalog #PV3577) and 900 nM of Bodipy-GDP (Invitrogen, G22360) and incubated at room temperature for six hours. This solution is referred to as Biotinylated KRAS G12C stock solution and is then diluted to 9 nM in assay buffer to give the KRAS G12C assay solution.
Each test compound (10 mM stock in DMSO) is diluted in DMSO to make a 10-point, 3-fold dilution series in a 384-well low dead volume microplate (Labcyte, catalog #LP-0200). Once titrations are made, 10 nL of the diluted compounds is acoustically dispensed into a 384-well plate (Corning, catalog #3820) using an Echo 550 (Labcyte).
Each well receives 6 μL of Biotinylated KRAS G12C assay solution using a BioRAPTR (Beckman Coulter) and is incubated at room temperature for 60 minutes in a humidified chamber. Each well then receives 3 μL of 120 nM recombinant human SOS protein and 9 mM GTP (Sigma, G8877) in assay buffer and is incubated at room temperature for 60 minutes in a humidified chamber.
as §1, with “reader: Excitation filter=340 nm; emission 1=495 nm; emission 2=520 nm;” for “reader:”, “mirror=D400/D505;” for “mirror=LANCE/DELFIA DUAL/Bias; Emission1=615 nm; Emission2=665 nm;”, “time=100 μs.” for “time=60 s.”, “520” for “665”, “495” for “615”

T1 sequence (P01116 with tags, fused parts or gaps isoform P01116-2 G12C/C51S/C80L/C118S): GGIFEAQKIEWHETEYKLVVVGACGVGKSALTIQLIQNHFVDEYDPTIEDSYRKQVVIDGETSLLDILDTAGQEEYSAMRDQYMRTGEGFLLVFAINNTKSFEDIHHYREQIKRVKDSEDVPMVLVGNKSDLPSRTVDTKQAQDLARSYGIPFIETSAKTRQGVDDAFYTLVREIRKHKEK
T2 sequence (P01116 with tags, fused parts or gaps isoform P01116-2 G12C/C51S/C80L/C118S): as above

On to `COC1CCN(C/C=C/C(=O)N2CCN(c3nc(OC[C@@]45CCCN4C[C@H](F)C5)nc4c3COC(c3c(F)cc(F)c5ccc(N)nc35)C4)C[C@@H]2CC#N)CC1` (single isomer, unassigned) [Example 23b], for which the IC50 (as a rule, the concentration that gives 50% inhibition) in assay [1] was determined as 12700 nM; in assay [2], 16 nM.

Regarding `C#Cc1cccc2cccc(C3Cc4nc(OC[C@]5(CO)CC5(F)F)nc(N5CCN(C(=O)/C=C/CN6CCC(OC)CC6)[C@@H](CC#N)C5)c4CO3)c12` (stereo partly drawn) [Example 24, 2-((2S)-4-(2-(((R)-2,2-difluoro-1-(hydroxymethyl)cyclopropyl)methoxy)-7-(8-ethynylnaphthalen-1-yl)-7,8-dihydro-5H-pyrano[4,3-d]pyrimidin-4-yl)-1-((E)-4-(4-methoxypiperidin-1-yl)but-2-enoyl)piperazin-2-yl)acetonitrile], the IC50 in assay [1] is greater than 50000 nM; in assay [2], 55 nM.

For `C#Cc1cccc2cccc([C@@H]3Cc4nc(OC[C@@]56CCCN5C[C@H](F)C6)nc(N5CCN(C(=O)/C=C/CN6CCC(OC)CC6)[C@@H](CC#N)C5)c4CO3)c12` (single isomer, unassigned) [Example 25b], the IC50 in assay [1] came to 74 nM; in assay [2], 1.6 nM.

Regarding `COC1CCN(C/C=C/C(=O)N2CCN(c3nc(OC[C@@]45CCCN4C[C@H](F)C5)nc4c3COC(c3nc(N)cc(C)c3C(F)(F)F)C4)C[C@@H]2CC#N)CC1` (stereo partly drawn) [Example 22, 2-((2S)-4-(7-(6-amino-4-methyl-3-(trifluoromethyl)-pyridin-2-yl)-2-(((2R,7aS)-2-fluorotetrahydro-1H-pyr-rolizin-7a(5H)-yl)methoxy)-7,8-dihydro-5H-pyrano[4,3-d]pyrimidin-4-yl)-1-((E)-4-(4-methoxypiperidin-1-yl)-but-2-enoyl)piperazin-2-yl)-acetonitrile], the values for the IC50 in assay [1] and in assay [2] were 122 nM and 5.6 nM, respectively.

With `COC1CCN(C/C=C/C(=O)N2CCN(c3nc(OC[C@@]45CCCN4C[C@H](F)C5)nc4c3COC(c3c(F)cc(F)c5ccc(N)nc35)C4)C[C@@H]2CC#N)CC1` (single isomer, unassigned) [Example 23a], the IC50 is greater than 50000 nM in assay [1] and 131 nM in assay [2].

For the molecule `COC1CCN(C/C=C/C(=O)N2CCN(c3nc(OC[C@@]45CCCN4C[C@H](F)C5)nc4c3CCC3(CCCc5ccccc53)O4)C[C@@H]2CC#N)CC1` (stereo partly drawn) [Example 26, 2-((2S)-4-(2′-(((2R,7aS)-2-fluorotetrahydro-1H-pyrrolizin-7a(5H)-yl)methoxy)-3,4,5′,6′-tetrahydro-2H-spiro[naphthalene-1,7′-pyrano[2,3-d]pyrimidin]-4′-yl)-1-((E)-4-(4-methoxypiperidin-1-yl)but-2-enoyl)piperazin-2-yl)acetonitrile], the IC50 was 48800 nM in assay [1] and 80.8 nM in assay [2].
